Legend:
Type in all cases: cell-based
[1] = biological target: T1, human TRPM5 (Homo sapiens, UniProt Q9NZQ8); assay: TRPM5 membrane potential dye FLIPR assay in hTRPM5-HEK293 cells, ATP stimulated; conditions: for inhibition at 10 µM: 10 μM compound, 3 μM ATP, read-out: TRPM5 Activity (percent inhibition; enhancement is negative inhibition)
T1 construct: expressed in transfected cells
T1 sequence (Q9NZQ8 1-1165): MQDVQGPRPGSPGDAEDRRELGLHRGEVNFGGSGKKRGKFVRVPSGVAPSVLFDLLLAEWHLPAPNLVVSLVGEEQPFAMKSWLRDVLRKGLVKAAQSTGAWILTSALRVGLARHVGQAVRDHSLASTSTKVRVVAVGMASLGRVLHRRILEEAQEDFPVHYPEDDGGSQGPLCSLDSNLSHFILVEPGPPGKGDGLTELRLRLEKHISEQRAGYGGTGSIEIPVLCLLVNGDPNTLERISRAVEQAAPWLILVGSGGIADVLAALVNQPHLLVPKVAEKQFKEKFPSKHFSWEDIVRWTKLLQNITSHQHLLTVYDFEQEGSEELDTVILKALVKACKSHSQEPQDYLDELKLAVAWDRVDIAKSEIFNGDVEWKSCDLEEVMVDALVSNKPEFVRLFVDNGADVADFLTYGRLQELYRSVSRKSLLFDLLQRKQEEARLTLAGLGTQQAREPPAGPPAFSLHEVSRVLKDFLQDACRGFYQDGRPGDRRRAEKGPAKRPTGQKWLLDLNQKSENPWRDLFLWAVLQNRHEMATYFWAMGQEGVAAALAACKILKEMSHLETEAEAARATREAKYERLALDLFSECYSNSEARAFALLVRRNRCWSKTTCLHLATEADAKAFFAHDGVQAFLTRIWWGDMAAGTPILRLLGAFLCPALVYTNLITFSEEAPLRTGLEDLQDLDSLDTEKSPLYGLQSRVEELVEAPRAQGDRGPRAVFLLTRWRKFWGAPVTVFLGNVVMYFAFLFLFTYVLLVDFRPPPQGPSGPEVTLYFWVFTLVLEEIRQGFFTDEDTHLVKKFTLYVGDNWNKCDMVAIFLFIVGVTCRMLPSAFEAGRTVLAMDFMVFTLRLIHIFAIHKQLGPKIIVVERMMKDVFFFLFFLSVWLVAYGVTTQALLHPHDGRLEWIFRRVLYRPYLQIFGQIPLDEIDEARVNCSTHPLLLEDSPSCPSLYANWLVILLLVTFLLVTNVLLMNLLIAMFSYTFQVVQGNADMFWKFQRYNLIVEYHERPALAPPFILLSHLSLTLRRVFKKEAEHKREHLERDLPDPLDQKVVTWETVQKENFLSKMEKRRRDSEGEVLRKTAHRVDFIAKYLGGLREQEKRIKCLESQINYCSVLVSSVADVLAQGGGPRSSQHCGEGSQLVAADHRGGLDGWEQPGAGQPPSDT
Method: The activity of human TRPM5 ion channel was measured in live cells on a fluorescent imaging plate reader (FLIPR). The basis of the assay (shown in FIG. 1) is the calcium-dependent activation of the ion channel which occurs via by activation of a G-protein coupled receptor (GPCR). GPCR activation by an appropriate agonist causes a transient increase in […] Ca^2+ ion concentration which in turn causes the ion channel to open, letting in Na^+ ions. This influx causes a change in the membrane potential of the cell which can be monitored as a change in the fluorescent signal from voltage-dependent (membrane potential) fluorescent dyes.
For the screening assay, the human TRPM5 gene was cloned, put into HEK293 cells, and a stable, high expression clone was used for screening. Cells were grown in standard media at 37° C. The day before screening, the cells were removed from flasks and added to 384 well clear bottom plates (8K cells in 20 μL/well). On the assay day, 20 μL of membrane potential dye (Part No. R8123, Molecular Devices Corp.) was added to the cells and dye was allowed to be taken up, i.e., load, into the cells for 1 hr at 37° C. […] The assay was started by addition of 10 μL of solution from the compound plate into the cell plate. During this process, continuous fluorescent recordings were made simultaneously for all wells. After addition of the compound solution, the tips were automatically washed and a stimulation solution of 3 μM ATP to activate TRPM5 (an agonist for an endogenous purinurgic GPCR), was added to all wells of the cell plate. The height of the response was calculated and percent inhibition or enhancement values, versus negative control wells, was calculated for the test samples. Exemplary results are shown in the upper left graph of FIG. 3.

[2] = tested on: membrane potential response (non-specific ion channel blockers or enhancers); assay: KCl counterscreen (membrane potential response, 10 mM KCl instead of ATP); conditions: Homo sapiens, 10 μM compound, read-out: KCl Counterscreen (percent inhibition)
Method: (§1) Two counterscreen assays were run on separate cell plates utilizing the same cells as described above. In the calcium counterscreen, the cells were loaded with a calcium sensitive dye (Calcium3 Dye, Part no. 8090, Molecular Devices Corp.) and stimulated by ATP to check for compounds that block the GPCR-mediated calcium activation step. Exemplary results of this assay are shown in the lower left graph of FIG. 3. In the KCl counterscreen, cells are stimulated with 10 mM KCl instead of ATP to check for compounds that inhibit the membrane potential response by virtue of being non-specific ion channel blockers or enhancers.

[3] = tested on: GPCR-mediated calcium activation step; assay: Calcium counterscreen (calcium sensitive dye, ATP stimulated); conditions: Homo sapiens, 10 μM compound, read-out: Calcium Counterscreen (percent inhibition)
Method: as §1

[4] = biological target: T1, human TRPM5; assay: Whole-cell electrophysiological recording of TRPM5 current; conditions: 10 μM compound
Method: Standard whole-cell recordings were obtained from […] cells stably transfected with human TRPM5. Internal solution contained 135 mM CsGlutamate, 10 mM HEPES, 2 mM MgATP, 5 mM CaCl2 and 10 mM EGTA. External solution was HBSS (Gibco) buffered with 20 mM HEPES to pH 7.2. Currents were recorded with Multiclamp 700B amplifier using PClamp software; filtered at 1 kHz, sampled at 5 kHz. Holding potential was −80 mV. TRPM5 current in a single was activated by intracellular calcium dialysis (free calcium) and sampled with 200 ms ramps from −80 to 80 mV at 1 Hz. Current amplitudes were measured at −80 and 80 mV and plotted versus time. […] In essence, it appears that the compound makes the TRPM5 responsive lower or weaker Ca++ signals than is normally the case.

[5] = tested on: non-transfected, sham HEK cells; assay: Whole-cell electrophysiological recording in sham cells

With `O=C(Nc1ccccc1)N1CCCN(c2nc(-c3ccccc3)ns2)CC1` [Example 6, N-Phenyl-4-(3-phenyl-1,2,4-thiadiazol-5-yl)-1,4-diazepane-1-carboxamide] the inhibition at 10 µM [1] was -98%, the inhibition at 10 µM [2] was 16% and the inhibition at 10 µM [3] was -69%.
`COc1c(Cl)cccc1-c1cn2ccccc2n1` [Example 13, 2-(3-Chloro-2-methoxyphenyl)imidazo[1,2-a]pyridine] showed an inhibition at 10 µM [1] of -57%, an inhibition at 10 µM [2] of -10% and an inhibition at 10 µM [3] of 9%.
With `CC1(C)C(c2ccccc2)=NC(c2ccccc2)=[N+]1[O-]` [Example 9, 2,4-Diphenyl-5,5-dimethylimidazole-1-oxide] the inhibition at 10 µM [1] was -73%, the inhibition at 10 µM [2] was 17% and the inhibition at 10 µM [3] was -15%.
In the case of `C=CCNC(=S)/N=c1\sc2ccccc2n1C` [Example 10, 1-Allyl-3-(3-methylbenzo[d]thiazol-2-(3H)-ylidene)thiourea], the “TRPM5 current stimulation by compound” value ([4]; 30 μm calcium) is reported as “further stimulation”, the “TRPM5 current in response to compound” value ([4]; +80 mV, calcium 300 nm) is reported as over 5 nA and the “TRPM5 current activation by compound” value ([4]; absence of calcium) is reported as “no current activation”. It also gave an inhibition at 10 µM [1] of -73%, an inhibition at 10 µM [2] of 1% and an inhibition at 10 µM [3] of 0%. For the same molecule, the “current in sham cells” value [5] was “no significant current”.
`CN(C)CC(=O)Nc1nc(-c2ccc(Cl)cc2)cs1` [Example 16, N-(4-(4-Chlorophenyl)thiazol-2-yl)-2-(dimethylamino)acetamide] was tested, and the inhibition at 10 µM [1] was -23%, the inhibition at 10 µM [2] was -9% and the inhibition at 10 µM [3] was -25%.
`CCOC(=O)C/N=c1\sc2ccccc2n1C` [Example 1, Ethyl 2-(3-Methylbenzo[d]thiazol-2(3H)-ylideneamino)acetate] was tested, and the inhibition at 10 µM [1] was -139%, the inhibition at 10 µM [2] was 10% and the inhibition at 10 µM [3] was -18%.
Molecule `N=c1sccn1CC(=O)c1cccc([N+](=O)[O-])c1` [Example 11, 2-(2-Iminothiazol-3(2H)-yl)-1-(3-nitrophenyl)ethanone] has an inhibition at 10 µM [1] of -68%, an inhibition at 10 µM [2] of 21% and an inhibition at 10 µM [3] of -12%.
In the case of `O=c1sc2ccccc2c2c1ncn2-c1ccccc1` [Example 15, 1-Phenylthiochromeno[4,3-d]imidazol-4(1H)-one], the inhibition at 10 µM [1] is reported as -48%, the inhibition at 10 µM [2] is reported as -9% and the inhibition at 10 µM [3] is reported as -22%.
With `Cc1ccc(-c2cn3ncsc3n2)cc1` [Example 5, 6-p-Tolylimidazo[2,1-b][1,3,4]thiadiazole] the inhibition at 10 µM [1] was -100%, the inhibition at 10 µM [2] was 7% and the inhibition at 10 µM [3] was 23%.
Molecule `COc1cccc(OC)c1OCCSc1nc2ccccc2n1CCO` [Example 7, 2-(2-(2-(2,6-Dimethoxyphenoxy)ethylthio)-1H-benzimidazol-1-yl)ethanol] has an inhibition at 10 µM [1] of -95%, an inhibition at 10 µM [2] of -4% and an inhibition at 10 µM [3] of -15%.
`CCc1nnc2nc(-c3ccc(Cl)c([N+](=O)[O-])c3)[nH]n12` [Example 4, 6-(4-Chloro-3-nitrophenyl)-3-ethyl-5H-[1,2,4]triazolo[4,3-b][1,2,4]triazole] was tested, and the inhibition at 10 µM [1] was -101%, the inhibition at 10 µM [2] was -32% and the inhibition at 10 µM [3] was 13%.
With `CCn1c(C)nc([N+](=O)[O-])c1Sc1ccc(Cl)cn1` [Example 8, 1-Ethyl-2-methyl-4-nitro-5-(5-chloropyridin-2-ylthio)imidazole] the inhibition at 10 µM [1] was -76%, the “effect on TRPM5 activity (FIG. 3)” value ([1]; 1, 3, 10 and 30 μM compound) was “selective enhancement” and the inhibition at 10 µM [2] was 7%. The inhibition at 10 µM [3] was -22%.
Work on `COC(=O)c1sccc1Oc1ccc([N+](=O)[O-])cn1` [Example 3] yielded an inhibition at 10 µM [1] of -113%, an inhibition at 10 µM [2] of 17% and an inhibition at 10 µM [3] of 11%.
`CCc1ccc(-c2csc(NC(=O)c3cc(OC)cc(OC)c3)n2)cc1` [Example 14, N-(4-(4-Ethylphenyl)thiazol-2-yl)-3,5-dimethoxybenzamide] was tested, and the inhibition at 10 µM [1] was -55%, the inhibition at 10 µM [2] was -101% and the inhibition at 10 µM [3] was 10%.
Work on `Cc1csc(-c2cn(C(C)C)c(=O)n(Cc3ccccc3)c2=O)n1` [Example 12] yielded an inhibition at 10 µM [1] of -62%, an inhibition at 10 µM [2] of 3% and an inhibition at 10 µM [3] of -5%.
Work on `COc1ccccc1OCCSc1nc2ccccc2[nH]1` [Example 2, 2-(2-(2-Methoxyphenoxy)ethylthio)-1H-benzimidazole] yielded an inhibition at 10 µM [1] of -136%, an inhibition at 10 µM [2] of -3% and an inhibition at 10 µM [3] of 19%.
`Cn1nc(C(F)(F)F)c(C(=O)Nc2ccc(C(F)(F)F)cc2)c1Cl` [Example 17, 5-Chloro-1-methyl-3-(trifluoromethyl)-N-(4-(trifluoromethyl)phenyl)-1H-pyrazole-4-carboxamide] was tested, and the inhibition at 10 µM [1] was -16%, the inhibition at 10 µM [2] was -25% and the inhibition at 10 µM [3] was 4%.

Source: US7674831B2, “Heterocyclic compounds as sweetener enhancers” (Redpoint Bio Corporation, priority 2006, dated 2010)
